# Assays:
# [1] = tested on: SNB-75; conditions: single dose 10 μM; CNS cancer
# [2] = tested on: NCI-H522; conditions: single dose 10 μM; non-small lung carcinoma
# [3] = tested on: UO-31; conditions: single dose 10 μM; renal carcinoma
# [4] = tested on: SF-539; conditions: single dose 10 μM; CNS cancer
# [5] = tested on: K-562; conditions: single dose 10 μM; leukemia
# [6] = tested on: NCI-H23; conditions: single dose 10 μM; non-small lung carcinoma
# [7] = tested on: OVCAR-5; conditions: single dose 10 μM; ovarian carcinoma
# [8] = tested on: SN12C; conditions: single dose 10 μM; renal carcinoma
# [9] = tested on: MCF7; conditions: single dose 10 μM; breast carcinoma
# [10] = tested on: TK-10; conditions: single dose 10 μM; renal carcinoma
# [11] = tested on: MDA-MB-435; conditions: single dose 10 μM; melanoma
# [12] = tested on: MALME-3M; conditions: single dose 10 μM; melanoma
# [13] = tested on: HL-60(TB); conditions: single dose 10 μM; leukemia
# [14] = tested on: SNB-19; conditions: single dose 10 μM; CNS cancer
# [15] = tested on: KM12; conditions: single dose 10 μM; colon cancer
# [16] = tested on: MDA-MB-468; conditions: single dose 10 μM; breast carcinoma
# [17] = tested on: SF-295; conditions: single dose 10 μM; CNS cancer
# [18] = tested on: UACC-62; conditions: single dose 10 μM; melanoma
# [19] = tested on: MOLT-4; conditions: single dose 10 μM; leukemia
# [20] = tested on: SR; conditions: single dose 10 μM; leukemia
# [21] = tested on: 786–0; conditions: single dose 10 μM; renal carcinoma
# [22] = tested on: M14; conditions: single dose 10 μM; melanoma
# [23] = tested on: SF-268; conditions: single dose 10 μM; CNS cancer
# [24] = tested on: NCI 60 cancer cell line panel; assay: NCI 60 full panel summary; conditions: single dose 10 μM; mean over the NCI 60 panel
# [25] = tested on: CAKI-1; conditions: single dose 10 μM; renal carcinoma
# [26] = tested on: UACC-257; conditions: single dose 10 μM; melanoma
# [27] = tested on: EKVX; conditions: single dose 10 μM; non-small lung carcinoma
# [28] = tested on: A549/ATCC; conditions: single dose 10 μM; non-small lung carcinoma
# [29] = tested on: SW-620; conditions: single dose 10 μM; colon cancer
# [30] = tested on: A498; conditions: single dose 10 μM; renal carcinoma
# [31] = tested on: OVCAR-4; conditions: single dose 10 μM; ovarian carcinoma
# [32] = tested on: LOX IMVI; conditions: single dose 10 μM; melanoma
# [33] = tested on: CCRF-CEM; conditions: single dose 10 μM; leukemia
# [34] = tested on: RPMI-8226; conditions: single dose 10 μM; leukemia
# [35] = tested on: SK-MEL-2; conditions: single dose 10 μM; melanoma
# [36] = tested on: SK-OV-3; conditions: single dose 10 μM; ovarian carcinoma
# [37] = tested on: NCI-H226; conditions: single dose 10 μM; non-small lung carcinoma
# [38] = tested on: HCT-15; conditions: single dose 10 μM; colon cancer
# [39] = tested on: SK-MEL-5; conditions: single dose 10 μM; melanoma
# [40] = tested on: PC-3; conditions: single dose 10 μM; prostate carcinoma
# [41] = tested on: DU-145; conditions: single dose 10 μM; prostate carcinoma
# [42] = tested on: T-47D; conditions: single dose 10 μM; breast carcinoma
# [43] = tested on: HOP-62; conditions: single dose 10 μM; non-small lung carcinoma
# [44] = tested on: BT-549; conditions: single dose 10 μM; breast carcinoma
# [45] = tested on: HOP-92; conditions: single dose 10 μM; non-small lung carcinoma
# [46] = tested on: HT29; conditions: single dose 10 μM; colon cancer
# [47] = tested on: RXF 393; conditions: single dose 10 μM; renal carcinoma
# [48] = tested on: SK-MEL-28; conditions: single dose 10 μM; melanoma
# [49] = tested on: ACHN; conditions: single dose 10 μM; renal carcinoma
# [50] = tested on: OVCAR-8; conditions: single dose 10 μM; ovarian carcinoma
Compound,GI% [1],GI% [2],GI% [3],GI% [4],GI% [5],GI% [7],GI% [8],GI% [9],GI% [10],GI% [12],GI% [13],GI% [14],GI% [16],GI% [17],GI% [19],GI% [20],Mean GI% [24],GI% [25],GI% [27],GI% [30],other results
3-(5-(Benzofuran-2-yl)-1-phenyl-1H-pyrazol-3-yl)-1-phenylprop-2-en-1-one [2a],19.77%,3.81%,7.39%,0.23%,5.10%,0.37%,0.82%,5.38%,5.20%,1.12%,7.64%,4.72%,0.19%,5.84%,3.22%,17.52%,0.37%,15.01%,0.89%,1.16%,GI% [6]: 1.16%; GI% [11]: 0.51%; GI% [15]: 1.62%; GI% [18]: 2.28%; GI% [21]: 1.14%; GI% [22]: 0.52%; GI% [23]: 4.98%; GI% [26]: 5.50%; GI% [28]: 4.22%; GI% [29]: 0.70%; GI% [31]: 1.64%
"COc1ccc(C2=NN(C(C)=O)C(c3cn(-c4ccccc4)nc3-c3cc4ccccc4o3)C2)cc1OC (centres unmarked) [4c, 1-(5-(3-(Benzofuran-2-yl)-1-phenyl-1H-pyrazol-4-yl)-3-(3,4-dimethoxyphenyl)-4,5-dihydropyrazol-1-yl)ethanone]",14.70%,1.54%,11.00%,1.95%,7.80%,5.34%,10.86%,8.83%,,3.54%,12.17%,6.15%,8.49%,4.33%,8.51%,16.71%,2.51%,13.64%,2.78%,3.05%,GI% [32]: 3.27%; GI% [6]: 3.23%; GI% [33]: 9.93%; GI% [34]: 11.35%; GI% [35]: 1.30%; GI% [36]: 7.21%; GI% [37]: 1.68%; GI% [38]: 2.45%; GI% [39]: 5.22%; GI% [40]: 3.89%; GI% [41]: 1.59%; GI% [15]: 1.20%; GI% [21]: 4.42%; GI% [42]: 5.68%; GI% [23]: 4.67%; GI% [43]: 3.35%; GI% [26]: 6.12%; GI% [28]: 2.60%; GI% [44]: 3.97%; GI% [29]: 4.67%
"CC(=O)N1N=C(c2nc3ccccc3[nH]2)CC1c1cn(-c2ccccc2)nc1-c1cc2ccccc2o1 (centres unmarked) [4d, 1-(5-(3-(Benzofuran-2-yl)-1-phenyl-1H-pyrazol-4-yl)-3-(1H-benzo[d]imidazol-2-yl)-4,5-dihydropyrazol-1-yl)ethanone]",,1.70%,13.92%,0.68%,2.81%,6.06%,6.54%,5.40%,15.06%,5.76%,5.44%,4.75%,,9.71%,5.60%,18.72%,1.26%,7.51%,5.61%,5.12%,GI% [33]: 10.91%; GI% [34]: 4.74%; GI% [45]: 8.82%; GI% [46]: 0.62%; GI% [37]: 3.03%; GI% [38]: 1.38%; GI% [39]: 0.87%; GI% [47]: 2.67%; GI% [40]: 5.99%; GI% [18]: 2.82%; GI% [21]: 4.06%; GI% [42]: 18.84%; GI% [22]: 2.74%; GI% [23]: 1.38%; GI% [48]: 1.16%; GI% [26]: 1.22%; GI% [44]: 9.21%
"COc1ccc(C2=NNC(c3cn(-c4ccccc4)nc3-c3cc4ccccc4o3)C2)cc1 (centres unmarked) [3b, 3-(Benzofuran-2-yl)-4-(3-(4-methoxyphenyl)-4,5-dihydro-1H-pyrazol-5-yl)-1-phenyl-1H-pyrazole]",0.28%,0.82%,26.14%,4.09%,7.50%,,,2.03%,3.17%,4.88%,2.83%,2.46%,7.03%,1.43%,8.04%,7.24%,0.8%,17.83%,0.52%,2.47%,GI% [33]: 17.25%; GI% [34]: 7.55%; GI% [45]: 3.27%; GI% [36]: 6.45%; GI% [37]: 1.48%; GI% [38]: 1.12%; GI% [40]: 12.08%; GI% [49]: 5.79%; GI% [18]: 8.16%; GI% [42]: 2.60%; GI% [22]: 4.94%; GI% [43]: 4.32%; GI% [44]: 4.37%; GI% [50]: 1.00%

# From paper PMC12486440, “Design, synthesis, and in silico studies of new benzofuran–pyrazole hybrids as multi-kinase inhibitors with potential antiproliferative activity” (RSC Advances, 2025)
